# Measurements reported in patent publication US7157083B2, “Compositions and methods for treating retroviral infections” (priority 1998, dated 2007).
# Where two headings read alike, the source gives them in different places.
# Experiments:
# HIV-1 [1] = conditions: for % Control, Sum / Mean RT, Sum: Sum over 20, 10, 5 mg/mL
# Description: Reverse transcriptase (RT) activity was measured in cell-free supernatants. Tritiated thymidine triphosphate (NEN) (TTP) was resuspended in distilled H2O at […]. Poly rA and oligo dT were prepared as a stock solution which was kept at −20° C. The RT reaction buffer was prepared fresh on a daily basis and consists of 125 μL 1.0 M EGTA, 125 μL d H2O, 110 μL 10% SDS, 50 μL 1.0 M Tris (pH 7.4), 50 μL 1.0 M DTT, and 40μ1.0 M MgCl2. These three solutions were mixed together in a ratio of 2 parts TTP, 1 part poly rA:oligo dT, and 1 part reaction buffer. Ten microliters of this reaction mixture was placed in a round bottom microtiter plate and 15 μL of virus containing supernatant was added and mixed. The plate was incubated at 37° C. in a water bath with a solid support to prevent submersion of the plate and incubated for 60 minutes. Following reaction, the reaction volume was spotted onto pieces of DE81 paper, washed 5 times for 5 minutes each in a 5% sodium phosphate buffer, 2 times for 1 minute each in distilled water, 2 times for 1 minute each in 70% ethanol, and then dried. Opti-Fluor O was added to each sample and incorporated radioactivity was quantitated utilizing a Wallace 1450 Microbetaplus liquid scintillation counter.
# Control groups were not treated with the enzyme. The virus was then titrated on macrophage/monocyte cultures and incubated at 37° C. for 48 hours at which time the macrophages and monocytes were washed 3×, resuspended and placed in fresh wells. Naïve PBMC's were overlayed on the macrophage/monocyte cultures and incubated at 37° C. for 72 hours. The PBMC's were then separated, washed and placed in fresh wells with fresh medium and rested for 48 hours. After a 48 hour rest period, the PBMC's were challenged with HIV-1 with and without PHA, I1-2, or both. […] These various assays are presented below in Table 10 .
# HIV-1 [2] = conditions: Assay #7
# Description: (§1) Reverse transcriptase (RT) activity was measured in cell-free supernatants. Tritiated thymidine triphosphate (NEN) (TTP) was resuspended in distilled H2O at 5 Cl/mL. Poly rA and oligo dT were prepared as a stock solution which was kept at −20° C. The RT reaction buffer was prepared fresh on a daily basis and consists of 125 μL 1.0 M EGTA, 125 μL d H2O, 110 μL 10% SDS, 50 μL 1.0 M Tris (pH 7.4), 50 μL 1.0 M DTT, and 40μ1.0 M MgCl2. These three solutions were mixed together in a ratio of 2 parts TTP, 1 part poly rA:oligo dT, and 1 part reaction buffer. Ten microliters of this reaction mixture was placed in a round bottom microtiter plate and 15 μL of virus containing supernatant was added and mixed. The plate was incubated at 37° C. in a water bath with a solid support to prevent submersion of the plate and incubated for 60 minutes. Following reaction, the reaction volume was spotted onto pieces of DE81 paper, washed 5 times for 5 minutes each in a 5% sodium phosphate buffer, 2 times for 1 minute each in distilled water, 2 times for 1 minute each in 70% ethanol, and then dried. Opti-Fluor O was added to each sample and incorporated radioactivity was quantitated utilizing a Wallace 1450 Microbetaplus liquid scintillation counter.
# HIV-1 [3] = conditions: Assay #5
# Description: as §1
# HIV-1 [4] = conditions: Assay #6
# Description: as §1
substance,measurement,setting,value
Hyaluronidase,% Control,"HIV-1 [1]; Assay #1, 5 mg/mL",97.3%
same,Mean RT,"HIV-1 [1]; Assay #1, 5 mg/mL",20882.7 cpm
same,% Control,"HIV-1 [1]; Assay #1, 10 mg/mL",27.9%
same,Mean RT,"HIV-1 [1]; Assay #1, 10 mg/mL",6000 cpm
same,% Control,"HIV-1 [1]; Assay #1, 20 mg/mL",16.9%
same,Mean RT,"HIV-1 [1]; Assay #1, 20 mg/mL",3635.7 cpm
same,"% Control, Sum",HIV-1 [1]; Assay #1,142.1%
same,"Mean RT, Sum",HIV-1 [1]; Assay #1,30518.4 cpm
same,% Control,"HIV-1 [1]; Assay #2, 5 mg/mL",20.6%
same,Mean RT,"HIV-1 [1]; Assay #2, 5 mg/mL",6548.3 cpm
same,% Control,"HIV-1 [1]; Assay #2, 10 mg/mL",26.4%
same,Mean RT,"HIV-1 [1]; Assay #2, 10 mg/mL",8391.3 cpm
same,% Control,"HIV-1 [1]; Assay #2, 20 mg/mL",10.4%
same,Mean RT,"HIV-1 [1]; Assay #2, 20 mg/mL",3298.3 cpm
same,"% Control, Sum",HIV-1 [1]; Assay #2,57.4%
same,"Mean RT, Sum",HIV-1 [1]; Assay #2,18237.9 cpm
same,% Control,"HIV-1 [1]; Assay #3, 5 mg/mL",42.7%
same,Mean RT,"HIV-1 [1]; Assay #3, 5 mg/mL",5641.7 cpm
same,% Control,"HIV-1 [1]; Assay #3, 10 mg/mL",91.2%
same,Mean RT,"HIV-1 [1]; Assay #3, 10 mg/mL",12058 cpm
same,% Control,"HIV-1 [1]; Assay #3, 20 mg/mL",90.3%
same,Mean RT,"HIV-1 [1]; Assay #3, 20 mg/mL",11940.7 cpm
same,"% Control, Sum",HIV-1 [1]; Assay #3,224.2%
same,"Mean RT, Sum",HIV-1 [1]; Assay #3,29640.4 cpm
same,% Control,"HIV-1 [1]; Assay #4, 5 mg/mL",1.9%
same,Mean RT,"HIV-1 [1]; Assay #4, 5 mg/mL",247.3 cpm
same,% Control,"HIV-1 [1]; Assay #4, 10 mg/mL",22.4%
same,Mean RT,"HIV-1 [1]; Assay #4, 10 mg/mL",2973.7 cpm
same,% Control,"HIV-1 [1]; Assay #4, 20 mg/mL",29.9%
same,Mean RT,"HIV-1 [1]; Assay #4, 20 mg/mL",3961.7 cpm
same,"% Control, Sum",HIV-1 [1]; Assay #4,54.2%
same,"Mean RT, Sum",HIV-1 [1]; Assay #4,7182.7 cpm
same,% Control,"HIV-1 [1]; Assay #9, 5 mg/mL",137.4%
same,Mean RT,"HIV-1 [1]; Assay #9, 5 mg/mL",11038 cpm
same,% Control,"HIV-1 [1]; Assay #9, 10 mg/mL",128.8%
same,Mean RT,"HIV-1 [1]; Assay #9, 10 mg/mL",10344 cpm
same,% Control,"HIV-1 [1]; Assay #9, 20 mg/mL",96.2%
same,Mean RT,"HIV-1 [1]; Assay #9, 20 mg/mL",7725.7 cpm
same,"% Control, Sum",HIV-1 [1]; Assay #9,362.4%
same,"Mean RT, Sum",HIV-1 [1]; Assay #9,29107.7 cpm
same,% Control,"HIV-1 [1]; Assay #10, 5 mg/mL",230.8%
same,Mean RT,"HIV-1 [1]; Assay #10, 5 mg/mL",13715.3 cpm
same,% Control,"HIV-1 [1]; Assay #10, 10 mg/mL",122.2%
same,Mean RT,"HIV-1 [1]; Assay #10, 10 mg/mL",7258.7 cpm
same,% Control,"HIV-1 [1]; Assay #10, 20 mg/mL",61.1%
same,Mean RT,"HIV-1 [1]; Assay #10, 20 mg/mL",3633.7 cpm
same,"% Control, Sum",HIV-1 [1]; Assay #10,414.1%
same,"Mean RT, Sum",HIV-1 [1]; Assay #10,24607.7 cpm
same,% Control,"HIV-1 [1]; Assay #11, 5 mg/mL",63.2%
same,Mean RT,"HIV-1 [1]; Assay #11, 5 mg/mL",17826.3 cpm
same,% Control,"HIV-1 [1]; Assay #11, 10 mg/mL",75.3%
same,Mean RT,"HIV-1 [1]; Assay #11, 10 mg/mL",21230 cpm
same,% Control,"HIV-1 [1]; Assay #11, 20 mg/mL",30.1%
same,Mean RT,"HIV-1 [1]; Assay #11, 20 mg/mL",8496.3 cpm
same,"% Control, Sum",HIV-1 [1]; Assay #11,168.6%
same,"Mean RT, Sum",HIV-1 [1]; Assay #11,47552.6 cpm
same,% Control,"HIV-1 [1]; Assay #12, 5 mg/mL",118.3%
same,Mean RT,"HIV-1 [1]; Assay #12, 5 mg/mL",17657 cpm
same,% Control,"HIV-1 [1]; Assay #12, 10 mg/mL",39.8%
same,Mean RT,"HIV-1 [1]; Assay #12, 10 mg/mL",5946.7 cpm
same,% Control,"HIV-1 [1]; Assay #12, 20 mg/mL",56.1%
same,Mean RT,"HIV-1 [1]; Assay #12, 20 mg/mL",8382 cpm
same,"% Control, Sum",HIV-1 [1]; Assay #12,214.2%
same,"Mean RT, Sum",HIV-1 [1]; Assay #12,31985.7 cpm
same,% Control,HIV-1 [2]; 5 mg/mL,111.3%
same,Mean RT,HIV-1 [2]; 5 mg/mL,18777.7 cpm
same,% Control,HIV-1 [2]; 10 mg/mL,122.2%
same,Mean RT,HIV-1 [2]; 10 mg/mL,20614.7 cpm
same,% Control,HIV-1 [2]; 20 mg/mL,162.7%
same,Mean RT,HIV-1 [2]; 20 mg/mL,27462 cpm
same,"% Control, Sum","HIV-1 [2]; Sum over 20, 10, 5 mg/mL",396.2%
same,"Mean RT, Sum","HIV-1 [2]; Sum over 20, 10, 5 mg/mL",66854.4 cpm
same,% Control,HIV-1 [3]; 5 mg/mL,65.1%
same,Mean RT,HIV-1 [3]; 5 mg/mL,12442.7 cpm
same,% Control,HIV-1 [3]; 10 mg/mL,58.3%
same,Mean RT,HIV-1 [3]; 10 mg/mL,11156.3 cpm
same,% Control,HIV-1 [3]; 20 mg/mL,18.5%
same,"% Control, Sum","HIV-1 [3]; Sum over 20, 10, 5 mg/mL",141.9%
same,"Mean RT, Sum","HIV-1 [3]; Sum over 20, 10, 5 mg/mL",23599 cpm
same,% Control,HIV-1 [4]; 5 mg/mL,54.1%
same,Mean RT,HIV-1 [4]; 5 mg/mL,12279.7 cpm
same,% Control,HIV-1 [4]; 10 mg/mL,49.6%
same,Mean RT,HIV-1 [4]; 10 mg/mL,11244.7 cpm
same,% Control,HIV-1 [4]; 20 mg/mL,19.5%
same,Mean RT,HIV-1 [4]; 20 mg/mL,4430.7 cpm
same,"% Control, Sum","HIV-1 [4]; Sum over 20, 10, 5 mg/mL",123.2%
same,"Mean RT, Sum","HIV-1 [4]; Sum over 20, 10, 5 mg/mL",27955.1 cpm
